In this experiment the target is T1, bovine serum albumin (BSA) (Bos taurus, UniProt P02769).
T1 construct: gene ALB
Briefly: intrinsic fluorescence quenching (double-log Stern-Volmer, binding constant K at […] K); supported by UV absorption, CD and warfarin probe displacement. As to conditions: read-out: K (10^4 L.mol^- 1) (converted).

T1 sequence (P02769 25-607): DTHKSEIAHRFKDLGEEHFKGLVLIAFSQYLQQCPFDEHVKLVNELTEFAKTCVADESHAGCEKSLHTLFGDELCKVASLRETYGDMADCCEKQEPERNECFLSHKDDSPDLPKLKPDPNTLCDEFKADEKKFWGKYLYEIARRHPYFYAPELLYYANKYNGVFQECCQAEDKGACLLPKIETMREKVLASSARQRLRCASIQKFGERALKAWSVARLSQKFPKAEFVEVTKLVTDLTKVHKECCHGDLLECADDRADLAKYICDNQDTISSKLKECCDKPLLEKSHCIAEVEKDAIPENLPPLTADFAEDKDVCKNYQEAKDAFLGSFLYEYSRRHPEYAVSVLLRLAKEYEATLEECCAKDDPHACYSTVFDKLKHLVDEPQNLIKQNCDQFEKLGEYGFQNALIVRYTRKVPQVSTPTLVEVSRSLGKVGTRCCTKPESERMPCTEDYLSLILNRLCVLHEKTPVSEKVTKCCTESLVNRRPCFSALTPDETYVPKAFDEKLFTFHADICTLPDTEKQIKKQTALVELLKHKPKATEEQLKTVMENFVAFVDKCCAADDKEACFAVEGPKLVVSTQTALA

In the case of `CCOC(=O)C1=C[C@@H](OC(CC)CC)[C@H](NC(C)=O)[C@@H](N)C1` [OP, (3R,4R,5 S)-4-acetamido-5-amino-3-(1-ethylepoxy)-1-cyclohexene-1-carboxylic acid ethyl ester phosphate], the Kd was 47.8 µM.

The record behind these values is paper PMC11227190, “Interaction mechanism of oseltamivir phosphate with bovine serum albumin: multispectroscopic and molecular docking study” (BMC Chemistry, 2024).
